Like-named read-outs stand apart in the source and are kept apart here.
Legend:
Format in all cases: cell-based
[1] = test system: SMN2 CJ mRNA; experiment: Gene panel canonical junction qPCR splicing assay, SMN2; conditions: Table 4, read-out: SMN2 IC50 (decrease in CJ mRNA levels)
Protocol: (§1) Compounds described herein were used to modulate RNA transcript abundance in cells. The expression of a target mRNA was measured by detecting the formation of an exon-exon junction in the canonical transcript (CJ). A compound mediated exon-inclusion event was detected by observing an increase in formation of a new junction with an alternative exon (AJ). Real-time qPCR assays were used to detect these splicing switches and interrogate the potency of various compounds towards different target genes. A high-throughput real time quantitative PCR (RT-qPCR) assay was developed to measure these two isoforms of the mRNA (CJ and AJ) for an exemplary gene, HTT, together with a control housekeeping gene, GAPDH or GUSB or PPIA, used for normalization. Briefly, the A673 or K562 cell line was treated with various compounds described herein (e.g., compounds of Formula (I) or (II)). After treatment, the levels of the HTT mRNA targets were determined from each sample of cell lysate by cDNA synthesis followed by qPCR. The data analysis was performed by first determining the ΔCt vs the housekeeper gene. This ΔCt was then normalized against the DMSO control (ΔΔCt) and converted to RQ (relative quantification) using the 2^(−ΔΔCt) equation. The RQ were then converted to a percentage response by arbitrarily setting an assay window of 3.5 ΔCt for HTT-CJ and an assay window of 9 ΔCt for HTT-AJ. […] The percentage response was then fitted to the 4 parametric logistic equation to evaluate the concentration dependence of compound treatment. The increase in AJ mRNA is reported as AC50 (compound concentration having 50% response in AJ increase) while the decrease in CJ mRNA levels is reported as IC50 (compound concentration having 50% response in CJ decrease). Additional studies were carried out for a larger panel of genes using the protocol provided above. The junction between flanking upstream and downstream exons was used to design canonical junction qPCR assays. At least one of the forward primer, reverse primer or the CY5-labeled 5′ nuclease probe (with 3′ quencher such as ZEN/Iowa Black FQ) was designed to overlap with the exon junction to capture the CJ mRNA transcript. BLAST was used to confirm the specificity of the probeset and parameters such as melting temperature, GC content, amplicon size, and primer dimer formation are considered during their design. Data for the decrease in CJ mRNA levels for three exemplary genes (HTT, SMN2, and Target C) analyzed in this panel are reported as IC50 (compound concentration having 50% response in CJ decrease).

[2] = test system: Target C CJ mRNA; experiment: Gene panel canonical junction qPCR splicing assay, Target C; conditions: Table 4, read-out: Target C IC50 (decrease in CJ mRNA levels)
Protocol: as §1

[3] = test system: HTT CJ mRNA; experiment: Gene panel canonical junction qPCR splicing assay, HTT; conditions: Table 4, read-out: HTT IC50 (decrease in CJ mRNA levels)
Protocol: as §1

[4] = test system: HTT mRNA; experiment: Splicing assay (RT-qPCR) of HTT mRNA alternative junction (AJ) and canonical junction (CJ)
Protocol: Compounds described herein were used to modulate RNA transcript abundance in cells. The expression of a target mRNA was measured by detecting the formation of an exon-exon junction in the canonical transcript (CJ). A compound mediated exon-inclusion event was detected by observing an increase in formation of a new junction with an alternative exon (AJ). Real-time qPCR assays were used to detect these splicing switches and interrogate the potency of various compounds towards different target genes. A high-throughput real time quantitative PCR (RT-qPCR) assay was developed to measure these two isoforms of the mRNA (CJ and AJ) for an exemplary gene, HTT, together with a control housekeeping gene, GAPDH or GUSB or PPIA, used for normalization. Briefly, the A673 or K562 cell line was treated with various compounds described herein (e.g., compounds of Formula (I) or (II)). After treatment, the levels of the HTT mRNA targets were determined from each sample of cell lysate by cDNA synthesis followed by qPCR.
Materials: • Cells-to-CT 1-step kit: ThermoFisher A25602, Cells-to-CT lysis reagent: ThermoFisher 4391851C, TagMan™ Fast Virus 1-Step Master Mix: ThermoFisher 4444436 • GAPDH: VIC-PL, ThermoFisher 4326317E (Assay: Hs99999905_ml)—used for K562/suspension cell lines • GUSB: VIC-PL, ThermoFisher 4326320E (Assay: Hs99999908 ml)—used for K562/suspension cell lines • PPIA: VIC-PL, ThermoFisher 4326316E (Assay: Hs99999904 ml)—used for A673/adherent cell lines
The A673 cell line was cultured in DMEM with 10% FBS. Cells were diluted with full growth media and plated in a 96-well plate (15,000 cells in 100 ul media per well). The plate was incubated at 37° C. with 5% CO2 for 24 hours to allow cells to adhere. An 11-point 3-fold serial dilution of the compounds was made in DMSO then diluted in media in an intermediate plate. Compounds were transferred from the intermediate plate to the cell plate with the top dose at a final concentration of 10 uM in the well. Final DMSO concentration was kept at or below 0.25%. The cell plate was returned to the incubator at 37° C. with 5% CO2 for an additional 24 hours.
The K562 cell line was cultured in IMDM with 10% FBS. For K562, cells were diluted with full growth media and plated in either a 96-well plate (50,000 cells in 50 uL media per well) or a 384-well plate (8,000-40,000 cells in 45 uL media per well). An 11-point 3-fold serial dilution of the compounds were made in DMSO then diluted in media in an intermediate plate. Compound was transferred from the intermediate plate to the cell plate with the top dose at a final concentration of 10 uM in the well. Final DMSO concentration was kept at or below 0.25%. Final volume was 100 uL for 96-well plate and 50 uL for 384-well plate. The cell plate was then placed in an incubator at 37° C. with 5% CO2 for 24 hours.
The cells were then gently washed with 50 uL-100 uL cold PBS before proceeding to addition of lysis buffer. 30 uL-50 uL of room temperature lysis buffer with DNAse I (and optionally RNAsin) was added to each well. Cells were shaken/mixed thoroughly at room temperature for 5-10 minutes for lysis to take place and then 3 uL-5 uL of room temperature stop solution was added and wells were shaken/mixed again. After 2-5 minutes, the cell lysate plate was transferred to ice for RT-qPCR reaction setup. The lysates could also be frozen at −80° C. for later use.
In some cases, a direct lysis buffer was used. An appropriate volume of 3X lysis buffer (10 mM Tris, 150 mM NaCl, 1.5%-2.5% Igepal and 0.1-1 U/uL RNAsin, pH 7.4) was directly added to either K562 or A673 cells in media and mixed by pipetting 3 times. The plates were then incubated at room temperature with shaking/rocking for 20-50 minutes to allow for lysis to take place. After this time, the cell lysate plate was transferred to ice to set up for the RT-qPCR reactions. The lysates could also be frozen at −80° C. for later use. […]

[5] = decrease in CJ mRNA, A673 or K562 cells, 24 hours, read-out: HTT CJ IC50
[6] = increase in AJ mRNA, A673 or K562 cells, 24 hours, read-out: HTT AJ AC50

SMILES	IC50 [1] [µM]	IC50 [2] [µM]	IC50 [3] [µM]	IC50 [4, 5] [nM]	AC50 [4, 6] [nM]	AC50 ([4]; 24 h, read-out: HTT AJ AC50 (nM)) [nM]	IC50 ([4]; 24 h, read-out: HTT CJ IC50 (nM)) [nM]
Cn1cc2cc(-c3ccc4cc(C5CCNCC5)ccc4n3)c(O)cc2n1 [Compound 109, 2-methyl-5-[6-(piperidin-4-yl)quinolin-2-yl]indazol-6-ol]	< 0.1	0.1 to 1	< 0.1	< 100	100 to 1000		
C[C@H]1C[C@@H](c2ccc3nc(-c4cc5cn(C)nc5cc4O)ccc3n2)CCN1 (relative stereo) [Compound 140, 2-methyl-5-[6-[(2S,4S)-2-methylpiperidin-4-yl]-1,5-naphthyridin-2-yl]indazol-6-ol]	< 0.1	0.1 to 1	< 0.1	< 100	100 to 1000		
Cn1cc2cc(-c3ccc4nc(N5CCC(NC(C)(C)C)C5)ccc4n3)c(O)c(F)c2n1 (stereo not drawn) [Compound 202]	> 10	< 0.1	< 0.1	< 100	< 100		
CN1CC2(C1)CN(c1ccc3nc(-c4cc5cn(C)nc5cc4O)ccc3n1)C2 [Compound 123, 2-methyl-5-(6-[6-methyl-2,6-diazaspiro[3.3]heptan-2-yl]-1,5-naphthyridin-2-yl) indazol-6-ol]	< 0.1	< 0.1	0.1 to 1	< 100	100 to 1000		
CN(C)C1CCN(c2ccc3nc(-c4cc5cn(C)nc5cc4O)ccc3n2)CC1 [Compound 133, 5-[6-[4-(dimethylamino)piperidin-1-yl]-1,5-naphthyridin-2-yl]-2-methylindazol-6-ol]	< 0.1	1 to 10	1 to 10	1000 to 10000	1000 to 10000		
Cc1nc2c(C)c(O)c(-c3ccc4nc(N5CCC(NC6CCC6)C5)ccc4n3)cc2o1 (single isomer, unassigned) [Compound 237, 6-{6-[3-(cyclobutylamino)pyrrolidin-1-yl]-1,5-naphthyridin-2-yl}-2,4-dimethyl-1,3-benzoxazol-5-ol]	< 0.1	< 0.1	< 0.1	< 100	< 100		
Cn1cc2cc(-c3ccc4nc(N5CC[C@H](NC6(C)CC6)C5)ccc4n3)c(O)cc2n1 (single isomer, unassigned) [Compound 221, 2-methyl-5-{6-[(35)-3-[(1-methylcyclopropyl)amino]pyrrolidin-1-yl]-1,5-naphthyridin-2-yl}indazol-6-ol]	< 0.1	< 0.1	< 0.1	< 100	< 100		
CCN[C@@H]1CCN(c2ccc3nc(-c4cc5cn(C)nc5cc4O)ccc3n2)C1 [Compound 180]	< 0.1	0.1 to 1	< 0.1	< 100	100 to 1000		
CCN1CCC(c2ccc3nc(-c4cc5cn(C)nc5cc4O)ccc3n2)CC1 [Compound 138, 5-[6-(1-ethylpiperidin-4-yl)-1,5-naphthyridin-2-yl]-2-methylindazol-6-ol]	< 0.1	1 to 10	0.1 to 1	100 to 1000	100 to 1000		
Cn1cc2cc(-c3ccc4nc(N5C[C@H]6CC[C@@H](C5)N6)ccc4n3)c(O)cc2n1 [Compound 135, 5-[6 [(1R,5 S)-3,8-diazabicyclo[3.2.1]octan-3-yl]-1,5-naphthyridin-2-yl]-2-methylindazol-6-01]	< 0.1	1 to 10	1 to 10	1000 to 10000	1000 to 10000		
Cc1cn2nc(-c3ccc4nc(N5CCC(NC(C)(C)C)C5)ccc4n3)cc(C)c2n1 (stereo not drawn) [Compound 186, N-tert-butyl-1-(6-{2,8-dimethylimidazo[1,2-b]pyridazin-6-yl}-1,5-naphthyridin-2-yl)pyrrolidin-3-amine]	< 0.1	< 0.1	< 0.1			< 100	< 100
Cn1cc2cc(-c3ccc4nc(N5CCC(N6CCCC6)C5)ccc4n3)c(O)cc2n1 (stereo not drawn) [Compound 125, 5-(6-[[1,3 m ? bipyrrolidin]-1 ? yl]-1,5-naphthyridin-2-yl)-2-methylindazol-6-ol]	< 0.1	0.1 to 1	0.1 to 1	100 to 1000	100 to 1000		

Reference: patent US20240002375A1, “2-(INDAZOL-5-YL)-6-(PIPERIDIN-4-YL)-1,7-NAPHTHYRIDINE DERIVATIVES AND RELATED COMPOUNDS AS MODULATORS FOR SPLICING NUCLEIC ACIDS AND FOR THE TRE” (REMIX THERAPEUTICS INC., priority 2020, published 2024)
